Laboratory results from patent US7951530B2, “Cyclic maltosylmaltose, cyclic maltosymaltose-forming enzyme, their preparation and uses” (Kabushiki Kaisha Hayashibara Seibutsu Kagaku Kenkyujo, priority 2003, dated 2011).
Read-outs that look alike come from different tables or passages of the source.

Tests used:
Assay type in all cases: biochemical, Arthrobacter globiformis M6
CMM-forming enzyme [1] = assay: Effects of metal ions on the enzyme activity; details: for Effect on CMM-forming enzyme activity: 1 mM
CMM-forming enzyme [2] = assay: Action on various saccharides (substrate specificity, TLC); parameters: key: “−” means “Not changed”; “+” means “Spot of substrate is slightly decreased and other products are detected”; “++” means “Spot of substrate is markedly decreased and other products are detected”; “+++” means “Spot of substrate is virtually disappeared and other products are detected”; details: substrate 2% (w/v), one unit/g-substrate enzyme, 40° C., pH 6.0, 24 hours, TLC before and after reaction
Description: Substrate specificity of CMM-forming enzyme of the present invention was investigated using various saccharides as substrates. Substrate solutions were prepared by dissolving maltose, maltotriose, maltotetraose, maltopentaose, maltohexaose, maltoheptaose, neotrehalose, trehalose, kojibiose, nigerose, […] isomaltose, isomaltotriose, panose, isopanose, maltitol, maltotriitol, α-, β- or γ-cyclodextrin, amylose, soluble starch, glycogen, pullulan or dextran into water. Each substrate solution was admixed with acetate buffer (pH 6.0) and CaCl2 to give final concentrations of 20 mM and 1 mM, respectively. […] Substrate concentration was set to 2% (w/v) and followed by the enzyme reaction at 40° C. and pH 6.0 for 24 hours. Action and the specificity of the enzyme on these saccharides were confirmed by analyzing the reaction mixture before and after the reaction by TLC described in Experiment 1.

CMM-forming enzyme [3] = assay: Formation of CMM from various substrates; details: substrate 1.0% (w/v), one unit/g-substrate enzyme, 40° C., pH 6.0, 48 hours, HPLC
Description: Formation of CMM by the action of CMM-forming enzyme of the present invention was investigated using various saccharides as substrates. Maltotriose, maltotetraose, maltopentaose, maltohexaose, amylose, soluble starch, “[…] #100”, a partial starch hydrolyzate commercialized by Matsutani Chemical Industries Co., Ltd., Hyogo, Japan, or glycogen from corn, commercialized by Q.P. Corporation, Tokyo, Japan, was prepared into a solution. […] The reaction was stopped by heating the reaction mixture at 100° C. for 10 min. After treating the reaction mixture with α-glucosidase and glucoamylase by the same manner in Experiment 1, the amount of CMM was determined by HPLC and CMM content of the reaction mixture was measured.

[4] = CMM-forming enzyme activity in the presence of 1 mM metal salt, None = 100

| Compound | Relative activity (%) (CMM-forming enzyme [1]; [4]) | Action (CMM-forming enzyme [2]) | other results |
| --- | --- | --- | --- |
| [Cl][Al]([Cl])[Cl] [AlCl3] | 13% |  | Effect on CMM-forming enzyme activity (CMM-forming enzyme [1]): inhibited |
| [Ba+2].[Cl-].[Cl-] [BaCl2] | 90% |  |  |
| [Ca+2].[Cl-].[Cl-] [CaCl2] | 99% |  |  |
| [Cl-].[Cl-].[Co+2] [CoCl2] |  |  | Relative activity (%) (CMM-forming enzyme [1]): 95% |
| [Cl][Cu][Cl] [CuCl2] | 1% |  | Effect on CMM-forming enzyme activity (CMM-forming enzyme [1]): remarkably inhibited |
| [Cl][Fe][Cl] [FeCl2] | 95% |  |  |
| [Cl][Fe]([Cl])[Cl] [FeCl3] | 32% |  | Effect on CMM-forming enzyme activity (CMM-forming enzyme [1]): inhibited |
| [Cl][Hg][Cl] [HgCl2] | 2% |  | Effect on CMM-forming enzyme activity (CMM-forming enzyme [1]): remarkably inhibited |
| OC[C@H]1O[C@H](OC[C@H]2OC(O)[C@H](O)[C@@H](O)[C@@H]2O)[C@H](O)[C@@H](O)[C@@H]1O (some centres unmarked) [Isomaltose, isomaltose] |  | − |  |
| OC[C@H]1O[C@H](OC[C@H]2O[C@H](OC[C@H]3OC(O)[C@H](O)[C@@H](O)[C@@H]3O)[C@H](O)[C@@H](O)[C@@H]2O)[C@H](O)[C@@H](O)[C@@H]1O (some centres unmarked) [Isomaltotriose, isomaltotriose] |  | − |  |
| OC[C@H]1O[C@H](O[C@H]2[C@H](O)[C@@H](O)[C@@H](OC[C@H]3OC(O)[C@H](O)[C@@H](O)[C@@H]3O)O[C@@H]2CO)[C@H](O)[C@@H](O)[C@@H]1O (some centres unmarked) [Isopanose, isopanose] |  | − |  |
| OC[C@H]1O[C@H](O[C@H]2C(O)O[C@H](CO)[C@@H](O)[C@@H]2O)[C@H](O)[C@@H](O)[C@@H]1O (some centres unmarked) [Kojibiose, kojibiose] |  | − |  |
| OC[C@H]1O[C@H](O[C@H]2[C@H](O)[C@@H](O)[C@@H](O[C@H]3[C@H](O)[C@@H](O)[C@@H](O[C@H]4[C@H](O)[C@@H](O)C(O)O[C@@H]4CO)O[C@@H]3CO)O[C@@H]2CO)[C@H](O)[C@@H](O)[C@@H]1O (some centres unmarked) [Maltotetraose, maltotetraose] |  | +++ | CMM content (%) (CMM-forming enzyme [3]): 27.3% |
| OC[C@@H](O)[C@@H](O[C@H]1O[C@H](CO)[C@@H](O[C@H]2O[C@H](CO)[C@@H](O)[C@H](O)[C@H]2O)[C@H](O)[C@H]1O)[C@H](O)[C@@H](O)CO [Maltotriitol, maltotriitol] |  | − |  |
| [Cl-].[Cl-].[Mg+2] [MgCl2] | 98% |  |  |
| [Cl][Mn][Cl] [MnCl2] | 97% |  |  |
| OC[C@H]1O[C@@H](O[C@H]2O[C@H](CO)[C@@H](O)[C@H](O)[C@H]2O)[C@H](O)[C@@H](O)[C@@H]1O [Neotrehalose, neotrehalose] |  | − |  |
| [Cl][Ni][Cl] [NiCl2] | 90% |  |  |

| Compound | Relative activity (%) (CMM-forming enzyme [1]; [4]) | Action (CMM-forming enzyme [2]) | other results |
| --- | --- | --- | --- |
| OC[C@H]1O[C@H](O[C@H]2[C@H](O)[C@@H](CO)OC(O)[C@@H]2O)[C@H](O)[C@@H](O)[C@@H]1O (some centres unmarked) [Nigerose, nigerose] |  | − |  |
| OC[C@H]1O[C@H](OC[C@H]2O[C@H](O[C@H]3[C@H](O)[C@@H](O)C(O)O[C@@H]3CO)[C@H](O)[C@@H](O)[C@@H]2O)[C@H](O)[C@@H](O)[C@@H]1O (some centres unmarked) [Panose, panose] |  | − |  |
| [Cl][Pb][Cl] [PbCl2] | 36% |  | Effect on CMM-forming enzyme activity (CMM-forming enzyme [1]): inhibited |
| [Cl-].[Cl-].[Sr+2] [SrCl2] | 90% |  |  |
| OC[C@H]1O[C@H](O[C@H]2O[C@H](CO)[C@@H](O)[C@H](O)[C@H]2O)[C@H](O)[C@@H](O)[C@@H]1O [Trehalose, trehalose] |  | − |  |
| [Cl-].[Cl-].[Zn+2] [ZnCl2] | 73% |  |  |
| OC[C@H]1O[C@@H]2O[C@H]3[C@H](O)[C@@H](O)[C@@H](O[C@H]4[C@H](O)[C@@H](O)[C@@H](O[C@H]5[C@H](O)[C@@H](O)[C@@H](O[C@H]6[C@H](O)[C@@H](O)[C@@H](O[C@H]7[C@H](O)[C@@H](O)[C@@H](O[C@H]1[C@H](O)[C@H]2O)O[C@@H]7CO)O[C@@H]6CO)O[C@@H]5CO)O[C@@H]4CO)O[C@@H]3CO [α-Cyclodextrin, α-cyclodextrin] |  | − |  |
| OC[C@H]1O[C@@H]2O[C@H]3[C@H](O)[C@@H](O)[C@@H](O[C@H]4[C@H](O)[C@@H](O)[C@@H](O[C@H]5[C@H](O)[C@@H](O)[C@@H](O[C@H]6[C@H](O)[C@@H](O)[C@@H](O[C@H]7[C@H](O)[C@@H](O)[C@@H](O[C@H]8[C@H](O)[C@@H](O)[C@@H](O[C@H]1[C@H](O)[C@H]2O)O[C@@H]8CO)O[C@@H]7CO)O[C@@H]6CO)O[C@@H]5CO)O[C@@H]4CO)O[C@@H]3CO [β-Cyclodextrin, β-cyclodextrin] |  | − |  |
| OC[C@H]1O[C@@H]2O[C@H]3[C@H](O)[C@@H](O)[C@@H](O[C@H]4[C@H](O)[C@@H](O)[C@@H](O[C@H]5[C@H](O)[C@@H](O)[C@@H](O[C@H]6[C@H](O)[C@@H](O)[C@@H](O[C@H]7[C@H](O)[C@@H](O)[C@@H](O[C@H]8[C@H](O)[C@@H](O)[C@@H](O[C@H]9[C@H](O)[C@@H](O)[C@@H](O[C@H]1[C@H](O)[C@H]2O)O[C@@H]9CO)O[C@@H]8CO)O[C@@H]7CO)O[C@@H]6CO)O[C@@H]5CO)O[C@@H]4CO)O[C@@H]3CO [γ-Cyclodextrin, γ-cyclodextrin] |  | − |  |
| amylose |  | +++ | CMM content (%) (CMM-forming enzyme [3]): 41.8%; CMM content (%) (CMM-forming enzyme [3]; listed as amylose): about 42% |
| dextran |  | − |  |
| glycogen |  | ++ | CMM content (%) (CMM-forming enzyme [3]): 29.5%; CMM content (%) (CMM-forming enzyme [3]; listed as glycogen): about 30% |
| maltoheptaose |  | +++ | CMM content (%) (CMM-forming enzyme [3]): 36.6% |
| maltohexaose |  | +++ | CMM content (%) (CMM-forming enzyme [3]): 41.6% |
| maltopentaose |  | +++ | CMM content (%) (CMM-forming enzyme [3]): 24.4% |
| maltotriose |  | + | CMM content (%) (CMM-forming enzyme [3]): 0.6%; CMM content (%) (CMM-forming enzyme [3]; listed as maltotriose): about 0.6% |
| pullulan |  | − |  |
| soluble starch |  | +++ | CMM content (%) (CMM-forming enzyme [3]): 31.4%; CMM content (%) (CMM-forming enzyme [3]; listed as soluble starch): about 30% |
